The test system of assay [1] is rat aortic smooth muscle cells (myocytes). Nature of the assay: Myocytes growth inhibition measured by cell count (rat). It is filed as cell-based. Conditions: 72 h, cell count after 72 hours with 10% fetal calf serum, read-out: IC50 (concentration required to inhibit cell growth by 50%).
Assay [2] relates to macrophages loaded with cholesterol ester. Nature of the assay: Cholesterol esterification in macrophages loaded with cholesterol ester. Conditions: Figure 4; for relative potency on cholesterol esterification: cholesterol ester loaded macrophages. It is filed as cell-based, mouse. The method, then:
Cholesterol esterification induced by AcLDL in mouse peritoneal macrophages was investigated as follows. Mouse peritoneal macrophages were obtained by peritoneal lavage from mice (Balb/c Charles River, Calco, Italy) three days after intraperitoneal injection of thioglycolate. Cells (2-3x10^6) were plated in 35 mm wells with Dulbecco's minimum essential medium containing 10% fetal bovine serum. After 3 hours, the dishes were washed to eliminate unattached cells and maintained in Dulbecco's minimum essential medium plus 10% fetal bovine serum for 24 hours before use. After cell plating, experiments were performed at 37°C in serum free Dulbecco's minimum essential medium containing 0.2% essentially fatty acid-free bovine serum albumin plus the indicated additions. Human LDL (d=1.019-1.063 g/ml) were isolated from plasma of healthy volunteers by sequential ultracentrifugation (Beckman L5-50, Palo Alto, CA). For acetylation, LDL were dialysed against 0.15 M NaCl, pH 7.4, diluted with an equal volume of saturated sodium acetate and treated with acetic anhydride. For [^125I]AcLDL, lipoproteins were labelled with sodium [^125I]iodide desalted by gel filtration on Sephadex G-25 eluted with phosphate buffered saline. Specific activity was 100-200 cpm/ng protein. Trichloroacetic acid non precipitable radioactivity was below 2% of total. All lipoproteins were sterile filtered. Cells were incubated for 24 hours with the tested compounds. After substitution of the medium with an identical one, incubation was continued for additional 24 hours. During this second incubation [^125I]AcLDL were added (50 µg/ml). Cholesterol esterification was measured after addition of [1-^14C] oleic acid ([…] sample) complexed with bovine serum albumin during the last 1 or 2 hours of incubation and subsequent determination of radioactivity associated with cellular cholesteryl esters. Where indicated cells were enriched with cholesterol by 24 hours incubation with 50 µg/ml of AcLDL before drug addition and experimental determinations.
Another set of experiments was performed to evaluate the effect of lercanidipine on cholesterol esterification in macrophages loaded with cholesterol ester before the addition of the compound, this condition being the same as in foam cells. Cells are loaded with cholesteryl esters by exposure for 24 hours to a medium containing 50 µg acetyl LDL.

The subject of a further assay is renal hypertensive dogs. Nature of the assay: Blood pressure in renal hypertensive dogs, oral administration. It is filed as in vivo, beagle dogs. Conditions: for ED25 (dose inducing 25% decrease in DBP at peak effect), 95% C.L.: renal hypertensive dogs, linear regression analysis. The procedure:
The antihypertensive effects of oral assumption of lercanidipine and its enantiomers were tested in renal hypertensive dogs.
Male beagle dogs weighing 12-13 kg, aged 1-3 years (Nossan Allevamenti, Italy) were used. Chronic sustained hypertension was induced by bilateral renal artery constriction, according to the Goldblatt method "two-kidney, two clip hypertension". Under barbiturate anaesthesia (35 mg/kg iv.) during two different surgical interventions one month apart from each other, both renal arteries were clipped with original renal silver clips and narrowed by about 60-70 %. After two months from the last intervention, an experimental renal hypertension was produced and the animals were suitable for the implantation of a catheter. Under sodium pentobarbital anaesthesia (35 mg/kg iv.), in sterile conditions, the dogs were catheterized by inserting an indwelling cannula (PE 200 Clay Adams) into the ascending aorta through the right common carotid artery. The catheter was subcutaneously exteriorized at the back of the neck, filled with heparinized saline solution and daily flushed to prevent clotting. After a week to recover from surgery, the animals were connected to a HP 1290A pressure transducer connected to an HP 8805B carrier amplifier of a Hewlett Packard HP 7700 multichannel polygraph, in order to monitor the arterial blood pressure. Heart rate was manually computed from the pressure trace.
All animals were alternatively treated with placebo, lercanidipine and its (R)- and (S)-enantiomers. The drugs were administered by the oral route with a straight round aseptic tip catheter (Pores Serlat - France). The drugs were suspended in aqueous 0.5% Methocel A4C plus Antifoam M10 (10%). The administered volume was 1 ml/kg. The suspending medicine was used as placebo. During experimental performance, the arterial blood pressure was continuously recorded 30 minutes before (Basal Values) and up to 8 hours after drug administration.
The ED25 values (dose inducing 25% decrease in DBP at peak effect) were evaluated by linear regression analysis and are summarized in Table 4.

The test system of assay [3] is cell-mediated oxidation of LDL. Nature of the assay: Time course of cell-mediated LDL oxidation. It is filed as cell-based. Conditions: 30 µM, after 10 hours incubation; Figure 7. The procedure: The antioxidant capacity of lercanidipine and its enantiomers was investigated also on cell-mediated oxidation. This was evaluated by incubating ethylenediaminetetraacetic acid free LDL under sterile conditions With 5 µM Cu^++ (100 µg Apo B/ml) in the presence of J774 cells or alternatively with EAhy-926 cells. Oxidation was blocked after 22 hours incubation by adding butylated hydroxytoluene to the medium (final concentration 40 µM) dissolved in ethanol. The extent of lipid peroxidation was measured by determining the percentage inhibition of aldehydic breakdown products using the thiobarbituric acid assay [A.N. Hanna et al., Biochem. Pharmacol. 45, 753 (1993)]. Briefly, to 0.250 ml of the incubated samples, 0.750 ml of trichloroacetic acid ([…]) was added followed by 0.750 ml of thiobarbituric acid (0.67% w/v). The samples were heated at 100°C for 20 min, followed by cooling and centrifugation. Malondialdehyde equivalents were calculated using 1,1,3,3-tetramethoxy-propane as standard.
In the above experiments of cell-mediated oxidation the effects of lercanidipine were investigated after 22 hours incubation. […]

In a further assay the test system is LDL. Nature of the assay: Cu++-mediated LDL oxidation, conjugated diene formation at 234 nm. It is filed as physicochemical, human. Details: Lag time: unit: min. Conditions: for Lag time: 20 µM CuSO4, 25°C. The method, then:
Lercanidipine antioxidant capacity was evaluated by incubating LDL With 20 µM Cu^++ in the presence or absence of different concentrations of the tested compound (0.01 µM - 50 µM). LDL oxidation Was followed by monitoring conjugated diene formation at 234 nm. The experimental conditions were as follows. LDL (d = 1.019-1.063) were isolated from human pooled plasma by sequential ultracentrifugation at 4°C and 40,000 rpm in a 50Ti rotor, using a L5-50 ultracentrifuge (Beckman, Palo Alto, CA). LDL were then dialyzed against 0.15 M NaCl containing 0.01% ethylenediaminetetraacetic acid pH 7.4, sterilized by filtration through a […] millipore filter and kept at 4°C under nitrogen in the dark until use (up to 3 weeks). Before use LDL were dialysed against ethylenediaminetetraacetic acid free phosphate buffered saline pH 7.4 on Sephadex G-25 columns (PD-10, Pharmacia Fine Chemicals, Uppsala, Sweden) and then LDL were filtered through a sterile 0.22 µM filter. LDL in phosphate buffered saline (50 µg lipoprotein protein/ml) were oxidized by incubation at 25°C with 20 µM CuSO4 for 3 hours. The lercanidipine solution was prepared as a 10^-2 M stock solution in methanol and added as ethanol solution (maximum 1% v/v) prior to addition of copper. The effect of lercanidipine on the oxidation of LDL was determined by continuous monitoring the conjugated diene formation by recording the increase in the absorbance at 234 nm at 5 min intervals during a three hours period, against a phosphate buffered saline blank, using a UV spectrophotometer (Beckman DU 640) with continuous reading with a automatic 6-cell changer. The lag time of the onset of oxidation was calculated as the intercept between the line of the maximum slope of the propagation phase and the baseline where absorbance was that at time 0.

In assay [4] the test system is Human vascular myocytes (A 617 from human femoral artery). Nature of the assay: Myocytes growth inhibition measured by cell count (human). It is filed as cell-based. The conditions noted are these: cell count after 72 hours with 10% fetal calf serum, read-out: IC50 (concentration required to inhibit cell growth by 50%). The method, then:
Migration of myocytes was investigated for the present invention using rat aortic smooth muscle cells in the presence of fibrinogen as chemotactic factor, whereas for studies on their proliferation rat and human cells were used. Cell count and [^3H]-thymidine incorporation were used to evaluate myocytes growth. The methodology was as follows:
Myocytes were cultured from the intima-medial layer of the aortas of male Sprague-Dawley rats (200-250 g). Cells were grown in monolayers at 37°C in a humidified atmosphere of 5% CO2 in Eagle's minimum essential medium supplemented with 10% (v/v) fetal calf serum, 100 U/ml penicillin, 0.1 mg/ml streptomycin, 20 mM tricine buffer and 1% (v/v) non-essential amino acid solution. The medium was changed every third day. Cells were used between the 4th and 10th passage. Cell viability was timely assessed by tripan blue exclusion. Myocytes were identified for growth behaviour, morphology and using monoclonal antibody specific for a-actin, the actin isoform typical of myocytes. Human vascular myocytes (A 617 from human femoral artery) were grown in the same culture conditions. […] Cell proliferation was evaluated by cell count after trypsinization of the monolayers using a Coulter Counter model ZM. Cell viability was assessed by tripan blue exclusion, and found to be higher than 95% at the drug concentrations used.

Assay [5] deals with mouse peritoneal macrophages. Nature of the assay: Cholesterol esterification induced by AcLDL in macrophages. It is filed as cell-based. Conditions: comparison of lercanidipine and enantiomers; Figure 3. The procedure:
Cholesterol esterification induced by AcLDL in mouse peritoneal macrophages was investigated as follows. Mouse peritoneal macrophages were obtained by peritoneal lavage from mice (Balb/c Charles River, Calco, Italy) three days after intraperitoneal injection of thioglycolate. Cells (2-3x10^6) were plated in 35 mm wells with Dulbecco's minimum essential medium containing 10% fetal bovine serum. After 3 hours, the dishes were washed to eliminate unattached cells and maintained in Dulbecco's minimum essential medium plus 10% fetal bovine serum for 24 hours before use. After cell plating, experiments were performed at 37°C in serum free Dulbecco's minimum essential medium containing 0.2% essentially fatty acid-free bovine serum albumin plus the indicated additions. Human LDL (d=1.019-1.063 g/ml) were isolated from plasma of healthy volunteers by sequential ultracentrifugation (Beckman L5-50, Palo Alto, CA). […] Trichloroacetic acid non precipitable radioactivity was below 2% of total. […] Cholesterol esterification was measured after addition of [1-^14C] oleic acid ([…] sample) complexed with bovine serum albumin during the last 1 or 2 hours of incubation and subsequent determination of radioactivity associated with cellular cholesteryl esters. […]

Like-named read-outs stand apart in the source and are kept apart here. Where only a bound is given, the exact number is not on record here.

Consider `CCOC(=O)C1=C(C)NC(C)=C(C(=O)OCC)C1c1ccccc1/C=C/C(=O)OC(C)(C)C` [LA, Lacidipine, reference compound], for which the IC50 in assay [1] (Myocytes from SD Rat) is 23.6 µM.

As for `COC(=O)C1=C(C)NC(C)=C(C(=O)OC(C)(C)CN(C)CCC(c2ccccc2)c2ccccc2)C1c1cccc([N+](=O)[O-])c1` (racemic) [Lercanidipine, methyl 1,1,N-trimethyl-N-(3,3-diphenylpropyl)-2-aminoethyl 1,4-dihydro-2,6-dimethyl--4-(3-nitrophenyl)-pyridine-3,5-dicarboxylate], the IC50 in assay [2] (Mus musculus, Macrophage, cells loaded 24 hours with 50 µg acetyl LDL) is ~7 µM; in assay [1] (Myocytes from SD Rat), 31.2 µM; in assay [1] (Myocytes from SHR Rat), 14.1 µM; in assay [1] (Myocytes from WK Rat), 16.4 µM; in assay [4], 25.3 µM. Further, the “inhibition of cholesterol esterification” value in assay [2] (maximum, cells loaded 24 hours with 50 µg acetyl LDL) was “up to 70%”. In addition, in the assay on renal hypertensive dogs, the “effect on arterial blood pressure” value is given as “dose-related decrease in arterial blood pressure”. Further, the “inhibition of lipid oxidation” value in assay [3] is “very high inhibition of lipid oxidation”. Moreover, the “effect on the lag-phase of LDL oxidation” value with LDL (10 µM) is “doubled the lag-phase of LDL oxidation”. For the same compound, the “potency on LDL oxidation compared with lacidipine” value with LDL ("in these assays" (LDL oxidation)) is listed as “one order of magnitude higher than that of lacidipine”. The Lag time is 45.1 ± 3.7 in the assay with LDL (Lercanidipine 0.5 µM); 49.8 ± 4.7 in the assay on LDL (Lercanidipine 1.0 µM); 53.6 ± 3.3 in the assay on LDL (Lercanidipine 2.5 µM, P < 0.05); 73.2 ± 4.8 with LDL (Lercanidipine 5.0 µM, P < 0.01); 112.7 ± 5.2 in the assay on LDL (Lercanidipine 10.0 µM, P < 0.01).

Take `COC(=O)C1=C(C)NC(C)=C(C(=O)OC(C)(C)CN(C)CCC(c2ccccc2)c2ccccc2)[C@@H]1c1cccc([N+](=O)[O-])c1` [(R)-Lercanidipine, (R)-(-)-methyl 1,1-N-triethyl-N-(3,3-diphenylpropyl)-2-aminoethyl 1,4-dihydro--2,6-dimethyl-4-(3-nitrophenyl)-pyridine-3,5-dicarboxylate]: in assay [2], the “relative potency on cholesterol esterification” value was “slightly more potent than the racemate”. Besides, the “ED25 (dose inducing 25% decrease in DBP at peak effect), 95% C.L.” value with renal hypertensive dogs is > > 30 mg/kg. Also, the “relative activity on cholesterol esterification induced by AcLDL” value in assay [5] is on record as “most active compound”.

With `COC(=O)C1=C(C)NC(C)=C(C(=O)OC(C)(C)CN(C)CCC(c2ccccc2)c2ccccc2)[C@H]1c1cccc([N+](=O)[O-])c1` [(S)-Lercanidipine, (S)-(+)-methyl 1,1-N-trimethyl-N-(3,3-diphenylpropyl)-2-aminoethyl 1,4-dihydro--2,6-dimethyl-4-(3-nitrophenyl)-pyridine-3,5-dicarboxylate], the “relative potency on cholesterol esterification” value in assay [2] is “least potent among the compounds tested”. In the assay with renal hypertensive dogs, the “antihypertensive efficacy compared with the racemate” value is given as “two fold more efficacious than the racemate”; the “effect on arterial blood pressure” value is “dose-related decrease in arterial blood pressure”; the “ED25 (dose inducing 25% decrease in DBP at peak effect), 95% C.L.” value is on record as 0.4 (0.3 ö 0.7) mg/kg.

Consider `COC(=O)C1=C(C)NC(C)=C(C(=O)OCCN(C)Cc2ccccc2)C1c1cccc([N+](=O)[O-])c1` (stereo not drawn) [NI, Nicardipine, reference compound], for which the IC50 in assay [1] (Myocytes from SD Rat) stood at 38.8 µM.

These data come from patent publication EP0839036B1, “USE OF 1,4-DIHYDROPYRIDINE DERIVATIVES IN THE PREVENTION AND THERAPY OF ATHEROSCLEROTIC DEGRADATION OF ARTERIAL WALLS” (RECORDATI S.A. CHEMICAL and PHARMACEUTICAL COMPANY, priority 1995, dated 1997).
